Values of other authors as cited in article PMC10386414 (Molecules, 2023).

Key:
[1] = earlier work, reference not given
MOR [2] = system: MOR; set-up: method as in PMID 17625813; conditions: receptor binding assay
[3] = set-up: method as in PMID 37381112; conditions: in vivo
[4] = set-up: method as in PMID 37381112; conditions: depending on the animal species used and the pain stimulus
MOR [5] = system: MOR; set-up: method as in PMID 33479684; conditions: cAMP assay, acted as a partial agonist

Row | SMILES | potency in vivo relative to morphine [1] | MOR affinity (MOR [2]) | locomotor effects [3] | antinociceptive activity [4] | %Emax (efficacy) (MOR [5]) | EC50 (MOR [5]; read-out: EC50 (potency))
1 | Oc1cccc(C23CCCC(C2O)N(CCc2ccccc2)CC3)c1 [1R,5R,9S-OH compound] | about 500 times | sub-nanomolar |  |  |  | 
2 | CCC[C@H]1[C@@H]2CCC[C@@]1(c1cccc(O)c1)CCN2CCc1ccccc1 [compound 16] |  |  | unlike morphine in its locomotor effects | some antinociceptive activity | 45% | 1.42 nM
